Literature values as cited in publication PMC10928227, “Assessing biologic/toxicologic effects of extractables from plastic contact materials for advanced therapy manufacturing using cell painting assay and cytotoxicity screening” (Scientific Reports, 2024).
Where two headings read alike, the source gives them in different places.

How the values were obtained:
[1] = Database Genotoxicity & Carcinogenicity ECVAM, ref EURL ECVAM genotoxicity and carcinogencity database, Madia F et al, 2020, cited from earlier work
[2] = cited from earlier work; for Risk based on in vitro genotoxicity data from database (from QSAR-toolbox): not checked for in vivo relevance, ref QSAR Toolbox 4.5 database
[3] = Salmonella typhimurium, Strain TA 98, in Vitro, Database: Bacterial mutagenicity ISSSTY, ref CCRIS database,Toxnet databases (Romualdo Benigni)
[4] = Salmonella typhimurium, Strain TA 100, in Vitro, Database: Bacterial mutagenicity ISSSTY, ref CCRIS database,Toxnet databases (Romualdo Benigni)
[5] = Salmonella typhimurium, Strain TA 102, in Vitro, Database: Bacterial mutagenicity ISSSTY, ref CCRIS database,Toxnet databases (Romualdo Benigni)
[6] = Salmonella typhimurium, Strain TA 1535, in Vitro, Database: Bacterial mutagenicity ISSSTY, ref CCRIS database,Toxnet databases (Romualdo Benigni)
[7] = Salmonella typhimurium, Strain TA 1537, in Vitro, Database: Bacterial mutagenicity ISSSTY, ref CCRIS database,Toxnet databases (Romualdo Benigni)
[8] = in Vitro, Chinese hamster, Chinese Hamster Lung (CHL), Duration 6÷18 h, Database Genotoxicity OASIS, ref Sofuni, T., Ed. (1998). Data Book of Chromosomal Aberration Test In Vitro, Revised Edition
[9] = in Vitro, Chinese hamster, Chinese Hamster Lung (CHL), Duration 24÷48 h, Database Genotoxicity OASIS, ref Sofuni, T., Ed. (1998). Data Book of Chromosomal Aberration Test In Vitro, Revised Edition
[10] = in Vitro, Database Genotoxicity & Carcinogenicity ECVAM, ref EURL ECVAM genotoxicity and carcinogencity database, Madia F et al, 2020
[11] = in Vitro, Salmonella typhimurium, No Strain Information, Database Genotoxicity OASIS, ref Journal of Medicinal Chemistry 48 (1), pp. 312-32, 25, Kazius J, McGuire R., Bursi R
[12] = in Vitro, Salmonella typhimurium, Strain TA 97, Database Genotoxicity OASIS, ref P&G
[13] = in Vitro, Salmonella typhimurium, Strain TA 98, Database Genotoxicity OASIS, ref P&G
[14] = in Vitro, Salmonella typhimurium, Strain TA 100, Database Genotoxicity OASIS, ref P&G
[15] = in Vitro, Salmonella typhimurium, Strain TA 102, OECD Guideline 471, Database Genotoxicity OASIS, ref CCRIS database,Toxnet databases
[16] = in Vitro, Salmonella typhimurium, Strain TA 1535, Database Genotoxicity OASIS, ref P&G
[17] = in Vitro, Salmonella typhimurium, Strain TA 1537, Database Genotoxicity OASIS, ref P&G
[18] = in Vitro, Salmonella typhimurium, Strain TA 1538, Database Genotoxicity OASIS, ref P&G
[19] = in Vitro, Salmonella typhimurium, Strain TA 98, Database Bacterial mutagenicity ISSSTY, ref CCRIS database,Toxnet databases, Romualdo Benigni, 02.5.2011
[20] = Salmonella typhimurium, Strain TA 97, in Vitro, Database: Bacterial mutagenicity ISSSTY, ref CCRIS database,Toxnet databases (Romualdo Benigni)
[21] = Salmonella typhimurium, Strain TA 104, in Vitro, Database: Bacterial mutagenicity ISSSTY, ref CCRIS database,Toxnet databases (Romualdo Benigni)

Structure (SMILES) | Gene mutation, Bacterial Reverse Mutation Assay (e.g. Ames Test) [2, 3] | Gene mutation, Bacterial Reverse Mutation Assay (e.g. Ames Test) [2, 4] | Gene mutation, Bacterial Reverse Mutation Assay (e.g. Ames Test) [2, 5] | Gene mutation, Bacterial Reverse Mutation Assay (e.g. Ames Test) [2, 6] | Gene mutation, Bacterial Reverse Mutation Assay (e.g. Ames Test) [2, 7] | Gene mutation, Bacterial Reverse Mutation Assay (e.g. Ames Test) [2, 11] | Gene mutation, Bacterial Reverse Mutation Assay (e.g. Ames Test) [2, 12] | Gene mutation, Bacterial Reverse Mutation Assay (e.g. Ames Test) [2, 13] | Gene mutation, Bacterial Reverse Mutation Assay (e.g. Ames Test) [2, 14] | Gene mutation, Bacterial Reverse Mutation Assay (e.g. Ames Test) [2, 15] | Gene mutation, Bacterial Reverse Mutation Assay (e.g. Ames Test) [2, 16] | Gene mutation, Bacterial Reverse Mutation Assay (e.g. Ames Test) [2, 17] | Gene mutation, Bacterial Reverse Mutation Assay (e.g. Ames Test) [2, 18] | Gene mutation, Bacterial Reverse Mutation Assay (e.g. Ames Test) [2, 20] | other results
CC(C)(c1ccc(O)cc1)c1ccc(O)cc1 [80-05-7] | Negative | Negative | Negative | Negative | Negative | Negative | Negative | Negative | Negative | Negative | Negative | Negative | Negative |  | Chromosome aberration, in Vivo Mammalian Chromosome Aberration Test [1]: Positive; Chromosome aberration, Micronucleus Assay ([1]; in Vivo): Negative; Gene mutation, Bacterial Reverse Mutation Assay (e.g. Ames Test) ([2]; Salmonella typhimurium, No Strain Information, in Vitro, Database: Genotoxicity OASIS, ref Mutation Research 584 (2005) 1-256, Kirkland et al.): Negative; Gene mutation, Bacterial Reverse Mutation Assay (e.g. Ames Test) ([2]; Salmonella typhimurium, Strain TA 97A, in Vitro, Database: Bacterial mutagenicity ISSSTY, ref CCRIS database,Toxnet databases (Romualdo Benigni)): Negative; Gene mutation, Bacterial Reverse Mutation Assay (e.g. Ames Test) ([2]; Salmonella typhimurium, Strain TA 98, in Vitro, Database: Genotoxicity OASIS, ref P&G): Negative; Gene mutation, Bacterial Reverse Mutation Assay (e.g. Ames Test) ([2]; Salmonella typhimurium, Strain TA 100, in Vitro, Database: Genotoxicity OASIS, ref P&G): Negative; Gene mutation, Bacterial Reverse Mutation Assay (e.g. Ames Test) ([2]; Salmonella typhimurium, Strain TA 1535, in Vitro, Database: Genotoxicity OASIS, ref P&G): Negative; Gene mutation, Bacterial Reverse Mutation Assay (e.g. Ames Test) ([2]; Salmonella typhimurium, Strain TA 1537, in Vitro, Database: Genotoxicity OASIS, ref P&G): Negative; Chromosome aberration, in Vitro Mammalian Chromosome Aberration Test [2, 8]: Negative; Chromosome aberration, in Vitro Mammalian Chromosome Aberration Test [2, 9]: Negative; Chromosome aberration, Micronucleus Assay [2, 10]: Negative; Chromosome aberration, in Vitro Mammalian Chromosome Aberration Test [2, 10]: Positive; Gene mutation, Bacterial Reverse Mutation Assay (e.g. Ames Test) [2, 10]: Negative; Gene mutation, Mammalian Cell Gene Mutation (MLA HPRT) [2, 10]: Inadequate; Chromosome aberration, in Vitro Mammalian Chromosome Aberration Test ([2]; in Vitro, No Strain Information, Database Genotoxicity OASIS, ref Mutation Research 584 (2005) 1-256, Kirkland et al.): Positive; Gene mutation, Mammalian Cell Gene Mutation Assay ([2]; in Vitro, T-lymphoma Cell Lines, Database Genotoxicity OASIS, ref Mutation Research 584 (2005) 1-256, Kirkland et al.): Negative
CCCCOC(=O)c1ccccc1C(=O)OCCCC [84-74-2] | Negative |  |  | Negative | Negative |  | Negative | Negative | Negative |  | Negative | Negative | Negative |  | Chromosome aberration, in Vitro Mammalian Chromosome Aberration Test [2, 8]: Negative; Chromosome aberration, in Vitro Mammalian Chromosome Aberration Test [2, 9]: Negative; Gene mutation, Bacterial Reverse Mutation Assay (e.g. Ames Test) [2, 19]: Negative; Gene mutation, Bacterial Reverse Mutation Assay (e.g. Ames Test) ([2]; in Vitro, Salmonella typhimurium, Strain TA 1535, Database Bacterial mutagenicity ISSSTY, ref CCRIS database,Toxnet databases, Romualdo Benigni, 02.5.2011): Negative; Gene mutation, Bacterial Reverse Mutation Assay (e.g. Ames Test) ([2]; in Vitro, Salmonella typhimurium, Strain TA 1537, Database Bacterial mutagenicity ISSSTY, ref CCRIS database,Toxnet databases, Romualdo Benigni, 02.5.2011): Negative
CCC(C)=O [78-93-3] | Negative | Negative | Negative | Negative | Negative | Negative | Negative | Negative | Negative | Negative | Negative | Negative | Negative | Negative | Gene mutation, Bacterial Reverse Mutation Assay (e.g. Ames Test) [2, 21]: Negative; Gene mutation, Bacterial Reverse Mutation Assay (e.g. Ames Test) ([2]; Salmonella typhimurium, Strain TA 1538, in Vitro, Database: Bacterial mutagenicity ISSSTY, ref CCRIS database,Toxnet databases (Romualdo Benigni)): Negative
OCc1ccccc1 [Benzylalcohol] |  |  |  |  |  |  |  |  |  |  |  |  |  |  | Risk based on in vitro genotoxicity data from database (from QSAR-toolbox) [2]: Positive in vitro data
CN1CCCC1=O [872-50-4] | Negative | Negative | Negative |  |  | Negative | Negative | Negative | Negative | Negative | Negative | Negative | Negative | Negative | Gene mutation, Bacterial Reverse Mutation Assay (e.g. Ames Test) [2, 21]: Negative; Gene mutation, Bacterial Reverse Mutation Assay (e.g. Ames Test) ([2]; Salmonella typhimurium, Strain TA 2638, in Vitro, Database: Bacterial mutagenicity ISSSTY, ref CCRIS database,Toxnet databases (Romualdo Benigni)): Negative
Cc1cc(C)c(C(=O)P(=O)(c2ccccc2)c2ccccc2)c(C)c1 [75980-60-8] |  |  |  |  |  |  |  |  |  |  |  |  |  |  | Chromosome aberration, in Vitro Mammalian Chromosome Aberration Test ([2]; in Vitro, Chinese hamster, Chinese Hamster Cells, Database Genotoxicity OASIS, ref Scientific Committee on Consumer Safety ( SCCS), 27 March 2014, SCCS/1528/14): Negative
CC(C)(C)c1ccc(O)c(C(C)(C)C)c1 [2,4-Di-tert-butylphenol] |  |  |  |  |  |  |  |  |  |  |  |  |  |  | Risk based on in vitro genotoxicity data from database (from QSAR-toolbox) [2]: Positive in vitro data
CCCCCCCC(=O)O [124-07-2] |  |  |  |  |  |  |  |  |  |  |  |  |  |  | Chromosome aberration, in Vitro Mammalian Chromosome Aberration Test ([2]; in Vitro, Chinese hamster, Chinese Hamster Lung Cells, Guidelines For Screening Mutagenicity Testing of Chemicals (Chemical Substances Control Law of Japan), Database Toxicity Japan MHLW, ref Japan Ministry of Health Labour and Welfare, http://dra4.nihs.go.jp/mhlw_data/jsp/SearchPageENG.jsp): Negative
CC(=O)c1ccccc1 [98-86-2] | Negative | Negative | Negative | Negative | Negative | Negative |  |  |  |  |  |  |  | Negative | Gene mutation, Bacterial Reverse Mutation Assay (e.g. Ames Test) ([2]; in Vitro, Salmonella typhimurium, Strain TA 97, Database Bacterial mutagenicity ISSSTY, ref CCRIS database,Toxnet databases, Romualdo Benigni, 02.5.2011): Negative; Gene mutation, Bacterial Reverse Mutation Assay (e.g. Ames Test) ([2]; in Vitro, Salmonella typhimurium, Strain TA 97, Database Genotoxicity OASIS, ref FUJITA H. AND SASAKI M., KENKYU NENPO - TOKYO-TORITSU EISEI KENKYUSHO 38:423-430, 1987): Negative; Gene mutation, Bacterial Reverse Mutation Assay (e.g. Ames Test) [2, 19]: Negative; Gene mutation, Bacterial Reverse Mutation Assay (e.g. Ames Test) ([2]; in Vitro, Salmonella typhimurium, Strain TA 102, Database Genotoxicity OASIS, ref FUJITA H. AND SASAKI M., KENKYU NENPO - TOKYO-TORITSU EISEI KENKYUSHO 38:423-430, 1987): Negative
CCCC(C)=O [107-87-9] |  |  |  |  |  |  |  |  |  |  |  |  |  |  | Gene mutation, Bacterial Reverse Mutation Assay (e.g. Ames Test) ([2]; in Vitro, Salmonella typhimurium, No Strain Information, Database Genotoxicity OASIS, ref J. Chem. Inf. Model., 2009, 49 (9), pp 2077–2081, Hansen K. et al.): Negative
